These are literature values, as cited in patent EP1146906B1, “MUCOSAL DELIVERY SYSTEM” (Alk-Abelló A/S, priority 1999, dated 2000).

Where two headings read alike, the source gives them in different places.

One may read the bioavailability as the share of a dose that reaches the circulation, judged against a reference dose that is usually intravenous.

The conditions of the data set: compared to the parenteral equivalent.

For the substance desmopression, the bioavailability is given as 10% (after nasal administration) and 1% (after oral administration).
